Source: patent publication US12036190B2, “Methods and compositions for the treatment of cytoplasmic glycogen storage disorders” (Duke University, priority 2015, dated 2024)
“Also recorded” adds a separate entry of the source. Read-outs that look alike come from different tables or passages of the source.

Experiments:
[1] = system: GAA knockout (KO) mice; test: β2 agonist with ERT (rhGAA) in GAA-KO mice with Pompe disease; conditions: for glycogen content in skeletal muscle: β2 agonist added to ERT, versus ERT alone; for CI-MPR (M6PR) expression: muscle
[2] = system: patients with late-onset Pompe disease; conditions: adjunctive to ERT; cited from earlier work
[3] = system: G6pc siRNA knockdown AML-12 cells; conditions: for Lipid Reduction Scoring, High dose / Lipid Reduction Scoring, Medium dose / Lipid Reduction Scoring, Low dose: Oil Red O, duplicate; for Lipid Reduction Scoring, Medium dose: medium concentration of Table 6; for Lipid Reduction Scoring, Low dose: low concentration of Table 6
Excerpt: In brief, a wide array of drugs was selected, including those that modulate autophagy via the […] pathway, those that do so through AMPK modulation to act through mTORC1, and those using yet-undetermined pathways. Analysis of additional literature led to the selection of three concentrations of each compound to be tested in cell culture using the G6pc siRNA knockdown AML-12 mouse hepatocyte cell line model of GSD Ia as an initial screen for the drugs.
Drug concentrations were chosen based on similarity to published concentrations in either cell culture models resulting in target effects or autophagy, or in vivo extracellular fluid concentrations following animal treatments. The latter case is noted with the fluid type. Concentrations used in our in vitro AML-12 cell culture treatments are listed as the low, medium, and high concentrations that were screened.
The first test using AML-12 cells was the Oil Red 0 stain to examine the presence of lipid vacuoles in cells given the treatments.
G6pc siRNA knockdown AML-12 cells were given three different doses of each drug treatment. After 72 hours of growth, the media was changed to ketogenic media and appropriate quantities of each drug were added. This was performed in duplicate. Oil Red 0 staining was then performed and bright field images acquired at 10× magnification.
Drug treatments at three doses each were performed on G6pc siRNA knockdown AML-12 cells. Following oil red 0 staining the whole plates were evaluated visually for reductions in lipid accumulation. Treatments were performed in duplicate. —/0/+/++/+++ indicates the degree of improvement, or lipid reduction, caused by the treatment, with + indicating positive benefits.

[4] = system: G6pc−/− knockout mice; test: Bezafibrate treatment of G6pc−/− mice; assay type: in vivo
Protocol: G6pc−/− knockout mice were administered intraperitoneal injections of bezafibrate 25 mg/kg/day suspended in 10% DMSO/90% PBS IP for 3 days.

[5] = system: HepG2 cells; test: LC3-II in HepG2 cells after clenbuterol; assay type: cell-based
Excerpt: (§1) Asterisk indicates p<0.05.
(§2) Thus, clenbuterol, a long-acting β-agonist with proven safety for long-term treatment of mice, represents a leading candidate among drugs to be considered for the manipulation of autophagy in GSD Ia (Table 2).

[6] = system: murine model for hepatosteatosis; assay type: in vivo, mouse
[7] = system: mouse primary hepatocytes; test: LC3-II in mouse primary hepatocytes after clenbuterol; assay type: cell-based; conditions: 24 hours
Excerpt: as §1, §2

[8] = system: autophagy; conditions: Table 4; drugs known to enhance autophagy; cited from earlier work
[9] = system: G6pc knockdown AML-12 cells; test: LC3 Western blot of drug-treated G6pc knockdown AML-12 cells; assay type: cell-based, mouse; conditions: 24 hours; conditions with optimal effects in the Oil Red O screen
Protocol: FIG. 27 illustrates LC3 Western blot of drug-treated G6pc knockdown AML-12 cells. Western blotting was performed on AML-12 cells incubated for 24 hours with the described drug conditions. LC3 was quantified and normalized against each condition's β-actin protein quantification.
In addition to Oil Red O staining, cells were analyzed via Western blots for restored LC3 expression for each drug, under the conditions that had optimal effects in the Oil Red O screen (FIG. 27). Since the Western antibody previously used successfully for rapamycin treatment LC3 blots had been discontinued by the manufacturer, we tested two alternative antibodies and chose the one from Cell Signaling Technologies because it gave the strongest signal-to-noise ratio under our experimental conditions.
Western blotting was performed on AML-12 cells incubated for 24 hours with the described drug conditions. LC3 was quantified and normalized against each condition's β-actin protein quantification.

Molecule | Lipid Reduction Scoring, High dose ([3]; high concentration of Table 6) | Lipid Reduction Scoring, Medium dose [3] | Lipid Reduction Scoring, Low dose [3] | Effect [8] | also measured
CC(C)(C)NCC(O)c1ccc(O)c(CO)c1 (centres unmarked) [Albuterol, albuterol] |  |  |  |  | glycogen content in skeletal muscle [1]: lower glycogen content; 6 minute walk test performance [2]: improve the 6 minute walk test performance
CC(C)(Oc1ccc(CCNC(=O)c2ccc(Cl)cc2)cc1)C(=O)O [Bezafibrate, bezafibrate] | ++ | + |  |  | kidney weight as a percentage of total body weight ([4]; bezafibrate 25 mg/kg/day IP, p<0.046): very small but quantitatively significant increase; blood glucose level ([4]; bezafibrate-treated affected mice, below threshold of detection): < 20 mg/dL
CC(C)(C)NCC(O)c1cc(Cl)c(N)c(Cl)c1 (centres unmarked) [Clenbuterol, clenbuterol] |  |  |  |  | lowest concentration at which LC3-II is increased ([5]; 24 hours): 300 nM; LC3-II ([5]; 24 hours after addition): increases LC3-II; autophagy ([6]; murine model for hepatosteatosis): induce autophagy; hepatosteatosis ([6]; preclinical experiments): reduced hepatosteatosis; muscle hypertrophy ([1]; GAA-KO mice): induce muscle hypertrophy; CI-MPR (M6PR) expression ([1]; GAA-KO mice): enhance CI-MPR expression; CI-MPR (M6PR) expression ([1]; GAA-KO mice, listed as clenbuterol): increase the expression of CI-MPR; also recorded: increased CI-MPR expression; also recorded: enhancing M6PR expression; uptake of rhGAA ([1]; preclinical experiments): increased the uptake of rhGAA; glycogen content in skeletal muscle [1]: lower glycogen content; also recorded: decreased glycogen storage; LC3-II [7]: increases LC3-II
CN(C)C(=N)N=C(N)N [Metformin] | 0 |  | + | Activated autophagy, activated AMPK in vitro | 
CN(C)c1ccc2nc3ccc(=[N+](C)C)cc-3sc2c1 [Methylene Blue, Methylene blue] | − − − | − − | + | Activated autophagy, inhibited hepatosteatosis | 
CC#C[C@]1(O)CC[C@H]2[C@@H]3CCC4=CC(=O)CCC4=C3[C@@H](c3ccc(N(C)C)cc3)C[C@@]21C [Mifepristone] | ++ | + (Spotty ++) | + | Activated autophagy, inhibited FXR | cell survival, High dose [3]: Great survival; LC3 normalized against β-actin (Western blot) [9]: increase in LC3 autophagic marker
Oc1ccc(C=Cc2cc(O)cc(O)c2)cc1 [Resveratrol] | − − − | 0 (Spotty ++) | + | Enhanced FAO , reduced | 
OC[C@H]1O[C@H](O[C@H]2O[C@H](CO)[C@@H](O)[C@H](O)[C@H]2O)[C@H](O)[C@@H](O)[C@@H]1O [Trehalose] |  | − − | + | Stimulated autophagy | cell survival, High dose [3]: High death
COc1ccc(CCN(C)CCCC(C#N)(c2ccc(OC)c(OC)c2)C(C)C)cc1OC (centres unmarked) [Verapamil] | − − | + |  | Induced autophagy, reduced cytosolic calcium | cell survival, High dose ([3]; high concentration of Table 6): Very high death
O=C(O)CCCCC1CCSS1 (stereo not drawn) [α-Lipoic acid, α-lipoic acid] | 0 |  | + | Activated autophagy, reduced intercellular | 
Cc1c(C)c2c(c(C)c1O)CC[C@@](C)(CCC[C@H](C)CCC[C@H](C)CCCC(C)C)O2 [α-Tocopherol] |  | − (Spotty ++) | 0 (Spotty +) |  | 
Thyroid hormone |  |  |  | Increased autophagy, reduced steatosis | 
